In PMC5218480 (PLoS ONE, 2017):

System: MV-4-11 cells
Assay: Gene expression microarray analysis (Affymetrix PrimeView) and GSEA
Assay type: cell-based, human
Set-up: RFU PODN (11730768_x_at) / Fold change /veh PODN (11730768_x_at) / RFU LINC00158 (11744669_a_at) / Fold change /veh LINC00158 (11744669_a_at) / RFU DUSP10 (11751237_a_at) / Fold change /veh DUSP10 (11751237_a_at) / RFU ID3 (11757404_x_at) / Fold change /veh ID3 (11757404_x_at) / RFU PLEKHG5 (11737974_s_at) / Fold change /veh PLEKHG5 (11737974_s_at) / RFU LRRC4B (11730491_at) / Fold change /veh LRRC4B (11730491_at) / RFU GIMAP4 (11747438_a_at) / Fold change /veh GIMAP4 (11747438_a_at) / RFU KRT8 (11758183_x_at) / Fold change /veh KRT8 (11758183_x_at) / RFU CNN1 (11734310_a_at) / Fold change /veh CNN1 (11734310_a_at) / RFU VPS37D (11726825_at) / Fold change /veh VPS37D (11726825_at) / RFU C10orf10 (11716522_x_at) / Fold change /veh C10orf10 (11716522_x_at) / RFU KIR2DL2 /// KIR2DL4 /// KIR2DL5A /// KIR2DL5B /// KIR2DS1 /// KIR2DS2 /// KIR2DS3 /// KIR2DS4 /// KIR3DL3 /// KIR3DL3 /// KIR3DS1 (11738374_at) / Fold change /veh KIR2DL2 /// KIR2DL4 /// KIR2DL5A /// KIR2DL5B /// KIR2DS1 /// KIR2DS2 /// KIR2DS3 /// KIR2DS4 /// KIR3DL3 /// KIR3DL3 /// KIR3DS1 (11738374_at) / RFU C1QL1 (11718748_at) / Fold change /veh C1QL1 (11718748_at) / RFU TMPRSS4 (11747572_a_at) / Fold change /veh TMPRSS4 (11747572_a_at) / RFU HAMP (11756126_x_at) / Fold change /veh HAMP (11756126_x_at) / RFU RNFT2 (11725882_a_at) / Fold change /veh RNFT2 (11725882_a_at) / RFU NR4A2 (11747474_a_at) / Fold change /veh NR4A2 (11747474_a_at) / RFU ABCC12 (11746883_a_at) / Fold change /veh ABCC12 (11746883_a_at) / RFU TMEM136 (11760407_x_at) / Fold change /veh TMEM136 (11760407_x_at) / RFU CLDN22 /// WWC2 (11732394_at) / Fold change /veh CLDN22 /// WWC2 (11732394_at) / RFU HLA-DPB1 (11760878_x_at) / Fold change /veh HLA-DPB1 (11760878_x_at) / RFU SPINT1 (11716480_a_at) / Fold change /veh SPINT1 (11716480_a_at) / RFU GAP43 (11754022_s_at) / Fold change /veh GAP43 (11754022_s_at) / RFU A4GNT (11735810_at) / Fold change /veh A4GNT (11735810_at) / RFU PRB3 (11715151_x_at) / Fold change /veh PRB3 (11715151_x_at) / RFU TUBB4B (11761932_at) / Fold change /veh TUBB4B (11761932_at) / RFU CAPN14 (11732068_a_at) / Fold change /veh CAPN14 (11732068_a_at) / RFU TMCC2 (11721928_a_at) / Fold change /veh TMCC2 (11721928_a_at) / RFU IRGQ (11745062_a_at) / Fold change /veh IRGQ (11745062_a_at) / RFU FAM174B (11720279_a_at) / Fold change /veh FAM174B (11720279_a_at) / RFU TMPRSS4 (11748680_a_at) / Fold change /veh TMPRSS4 (11748680_a_at) / RFU FAM212B (11763350_a_at) / Fold change /veh FAM212B (11763350_a_at) / RFU PLEKHG5 (11743358_a_at) / Fold change /veh PLEKHG5 (11743358_a_at) / RFU ZSCAN30 (11745921_a_at) / Fold change /veh ZSCAN30 (11745921_a_at) / RFU CMKLR1 (11741424_a_at) / Fold change /veh CMKLR1 (11741424_a_at) / RFU LOC101060620 /// MAPK8IP1 (11723275_at) / Fold change /veh LOC101060620 /// MAPK8IP1 (11723275_at) / RFU SPTSSB (11747773_x_at) / Fold change /veh SPTSSB (11747773_x_at) / RFU PRSS12 (11739890_at) / Fold change /veh PRSS12 (11739890_at) / RFU BIN1 (11741810_x_at) / Fold change /veh BIN1 (11741810_x_at) / RFU WNT11 (11732464_a_at) / Fold change /veh WNT11 (11732464_a_at) / RFU C10orf10 (11716521_a_at) / Fold change /veh C10orf10 (11716521_a_at) / RFU C5orf56 (11738089_at) / Fold change /veh C5orf56 (11738089_at) / RFU CYB561 (11721691_x_at) / Fold change /veh CYB561 (11721691_x_at) / RFU ANKRD19P (11752326_a_at) / Fold change /veh ANKRD19P (11752326_a_at) / RFU OR2T12 /// OR2T33 /// OR2T8 (11738714_s_at) / Fold change /veh OR2T12 /// OR2T33 /// OR2T8 (11738714_s_at) / RFU VCAN (11748164_a_at) / Fold change /veh VCAN (11748164_a_at) / RFU JSRP1 (11732532_at) / Fold change /veh JSRP1 (11732532_at) / RFU KRTAP10-11 (11738290_x_at) / Fold change /veh KRTAP10-11 (11738290_x_at) / RFU MYO3A (11730013_a_at) / Fold change /veh MYO3A (11730013_a_at) / RFU EBF3 (11725865_a_at) / Fold change /veh EBF3 (11725865_a_at) / RFU CAMK2N1 (11719241_x_at) / Fold change /veh CAMK2N1 (11719241_x_at) / RFU C5orf56 (11738088_a_at) / Fold change /veh C5orf56 (11738088_a_at) / RFU OLFML3 (11715873_a_at) / Fold change /veh OLFML3 (11715873_a_at) / RFU LOC100653217 /// NTM (11731650_a_at) / Fold change /veh LOC100653217 /// NTM (11731650_a_at) / RFU MAPK11 (11762145_a_at) / Fold change /veh MAPK11 (11762145_a_at) / RFU FIZ1 (11724087_x_at) / Fold change /veh FIZ1 (11724087_x_at) / RFU OASL (11726364_x_at) / Fold change /veh OASL (11726364_x_at) / RFU SOX15 (11748057_x_at) / Fold change /veh SOX15 (11748057_x_at) / RFU CD79A (11719716_a_at) / Fold change /veh CD79A (11719716_a_at) / RFU HIST1H1D (11736915_at) / Fold change /veh HIST1H1D (11736915_at) / RFU CASKIN2 (11723855_a_at) / Fold change /veh CASKIN2 (11723855_a_at) / RFU LOC730098 (11760151_x_at) / Fold change /veh LOC730098 (11760151_x_at) / RFU OR4N2 (11742367_at) / Fold change /veh OR4N2 (11742367_at) / RFU PRRT2 (11749266_a_at) / Fold change /veh PRRT2 (11749266_a_at) / RFU SNX32 (11753110_a_at) / Fold change /veh SNX32 (11753110_a_at) / RFU CDHR5 (11726645_a_at) / Fold change /veh CDHR5 (11726645_a_at) / RFU RCAN1 (11760418_a_at) / Fold change /veh RCAN1 (11760418_a_at) / RFU FAM167A (11723789_a_at) / Fold change /veh FAM167A (11723789_a_at) / RFU FAM26E (11764081_at) / Fold change /veh FAM26E (11764081_at) / RFU ISYNA1 (11749810_s_at) / Fold change /veh ISYNA1 (11749810_s_at) / RFU ACY1 (11761880_at) / Fold change /veh ACY1 (11761880_at) / RFU 11764098_at / Fold change /veh 11764098_at / RFU SAMD14 (11745864_x_at) / Fold change /veh SAMD14 (11745864_x_at) / RFU NPB (11741838_a_at) / Fold change /veh NPB (11741838_a_at) / RFU TMPRSS6 (11731388_a_at) / Fold change /veh TMPRSS6 (11731388_a_at) / RFU KRTAP10-2 (11738614_at) / Fold change /veh KRTAP10-2 (11738614_at) / RFU ARHGAP8 /// PRR5-ARHGAP8 (11727945_x_at) / Fold change /veh ARHGAP8 /// PRR5-ARHGAP8 (11727945_x_at) / RFU KRTAP5-7 /// NADSYN1 (11734609_at) / Fold change /veh KRTAP5-7 /// NADSYN1 (11734609_at) / RFU RASL12 (11751679_a_at) / Fold change /veh RASL12 (11751679_a_at) / RFU CDKN2B (11736163_a_at) / Fold change /veh CDKN2B (11736163_a_at) / RFU PRF1 (11729649_at) / Fold change /veh PRF1 (11729649_at) / RFU, ZNF638 /// ZNF638-IT1 / Fold change vs veh, ZNF638 /// ZNF638-IT1 / RFU, PANK3 / Fold change vs veh, PANK3 / RFU, SH3YL1 / Fold change vs veh, SH3YL1 / RFU, ZEB2 / Fold change vs veh, ZEB2 / RFU, NRIP1 / Fold change vs veh, NRIP1 / RFU, PTTG1IP / Fold change vs veh, PTTG1IP / RFU, CAPN2 / Fold change vs veh, CAPN2 / RFU, MED14 / Fold change vs veh, MED14 / RFU, SNORA58 / Fold change vs veh, SNORA58 / RFU, C1orf63 / Fold change vs veh, C1orf63 / RFU, LRRFIP1 / Fold change vs veh, LRRFIP1 / RFU, NDUFAF7 / Fold change vs veh, NDUFAF7 / RFU, SLC12A2 / Fold change vs veh, SLC12A2 / RFU, IBTK / Fold change vs veh, IBTK / RFU, ESF1 / Fold change vs veh, ESF1 / Fold change vs veh, TMEM50B / RFU, TAOK1 / Fold change vs veh, TAOK1 / RFU, ACBD3 / Fold change vs veh, ACBD3 / RFU, TMA16 / Fold change vs veh, TMA16 / RFU, RWDD3 / Fold change vs veh, RWDD3 / RFU, BCAT1 / Fold change vs veh, BCAT1 / RFU, EDEM3 / Fold change vs veh, EDEM3 / RFU, TMEM33 / Fold change vs veh, TMEM33 / RFU, WDR75 / Fold change vs veh, WDR75 / RFU, AHCTF1 / Fold change vs veh, AHCTF1 / RFU, TFRC / Fold change vs veh, TFRC / RFU, ZDHHC17 / Fold change vs veh, ZDHHC17 / RFU, NOM1 / Fold change vs veh, NOM1 / RFU, ARL8B / Fold change vs veh, ARL8B / RFU, ZBTB11 / Fold change vs veh, ZBTB11 / RFU, TAMM41 / Fold change vs veh, TAMM41 / RFU, KIAA1704 /// LOC100996395 / Fold change vs veh, KIAA1704 /// LOC100996395 / RFU, ING1 / Fold change vs veh, ING1 / RFU, TRMT61B / Fold change vs veh, TRMT61B / RFU, FUBP3 / Fold change vs veh, FUBP3 / RFU, TP53 / Fold change vs veh, TP53 / RFU, TNKS2 / Fold change vs veh, TNKS2 / RFU, ZFP14 / Fold change vs veh, ZFP14 / RFU, ACTR2 / Fold change vs veh, ACTR2 / RFU, PPP3R1 / Fold change vs veh, PPP3R1 / RFU, PIK3R1 / Fold change vs veh, PIK3R1 / RFU, HNRNPA1 / Fold change vs veh, HNRNPA1 / RFU, RNF170 / Fold change vs veh, RNF170 / RFU, ZNF28 / Fold change vs veh, ZNF28 / RFU, RNGTT / Fold change vs veh, RNGTT / RFU, OGT / Fold change vs veh, OGT / RFU, BRD1 / Fold change vs veh, BRD1 / RFU, MARS / Fold change vs veh, MARS / RFU, ZNF655 / Fold change vs veh, ZNF655 / RFU, FAHD1 / Fold change vs veh, FAHD1 / RFU, BDP1 / Fold change vs veh, BDP1 / RFU, LRRCC1 / Fold change vs veh, LRRCC1 / RFU, ARID1A / Fold change vs veh, ARID1A / RFU, ZNF146 / Fold change vs veh, ZNF146 / RFU, ZNF330 / Fold change vs veh, ZNF330 / RFU, GPN3 / Fold change vs veh, GPN3 / RFU, C9orf123 / Fold change vs veh, C9orf123 / RFU, N4BP2L2 / Fold change vs veh, N4BP2L2 / RFU, ARFIP1 / Fold change vs veh, ARFIP1 / RFU, FAM179B / Fold change vs veh, FAM179B / RFU, BCL10 / Fold change vs veh, BCL10 / RFU, UHRF1BP1L / Fold change vs veh, UHRF1BP1L / RFU, BET1 / Fold change vs veh, BET1 / RFU, CNOT2 / Fold change vs veh, CNOT2 / RFU, ZNF268 / Fold change vs veh, ZNF268 / Fold change vs veh, ZNF507 / RFU, DGCR2 / Fold change vs veh, DGCR2 / RFU, WDSUB1 / Fold change vs veh, WDSUB1 / Fold change vs veh, HSP90B1 /// MIR3652 / RFU, ADSS / Fold change vs veh, ADSS / RFU, GK / Fold change vs veh, GK / RFU, ZNF148 / Fold change vs veh, ZNF148 / RFU, TAF9 / Fold change vs veh, TAF9 / RFU, SLC1A5 / Fold change vs veh, SLC1A5 / RFU, SLMO2 / Fold change vs veh, SLMO2 / RFU, ABCC4 / Fold change vs veh, ABCC4 / RFU, LOC101060439 /// RAP1B / Fold change vs veh, LOC101060439 /// RAP1B / RFU, RFX7 / Fold change vs veh, RFX7 / RFU, GTPBP10 / Fold change vs veh, GTPBP10 / RFU, CNEP1R1 / Fold change vs veh, CNEP1R1 / RFU, BIVM-ERCC5 /// ERCC5 / Fold change vs veh, BIVM-ERCC5 /// ERCC5 / RFU, ILF3 / Fold change vs veh, ILF3 / RFU 11762660_at / Fold change /veh 11762660_at / RFU VCAN (11757783_s_at) / Fold change /veh VCAN (11757783_s_at) / RFU DDX43 (11728927_at) / Fold change /veh DDX43 (11728927_at) / RFU KRT8 (11758188_x_at) / Fold change /veh KRT8 (11758188_x_at) / RFU NKD1 (11759106_at) / Fold change /veh NKD1 (11759106_at) / RFU SRD5A1 (11742802_a_at) / Fold change /veh SRD5A1 (11742802_a_at) / RFU TPSAB1 /// TPSB2 (11721975_s_at) / Fold change /veh TPSAB1 /// TPSB2 (11721975_s_at) / RFU GSTM3 (11746129_a_at) / Fold change /veh GSTM3 (11746129_a_at) / RFU IL23R (11737362_x_at) / Fold change /veh IL23R (11737362_x_at) / RFU TMEM51 (11727254_a_at) / Fold change /veh TMEM51 (11727254_a_at) / RFU PIWIL2 (11732686_x_at) / Fold change /veh PIWIL2 (11732686_x_at) / RFU ORM1 (11744905_x_at) / Fold change /veh ORM1 (11744905_x_at) / RFU CCDC152 (11743942_at) / Fold change /veh CCDC152 (11743942_at) / RFU ECM1 (11717891_a_at) / Fold change /veh ECM1 (11717891_a_at) / RFU IL23R (11748794_a_at) / Fold change /veh IL23R (11748794_a_at) / RFU TNFAIP8L3 (11732012_x_at) / Fold change /veh TNFAIP8L3 (11732012_x_at) / RFU MBOAT4 (11741988_at) / Fold change /veh MBOAT4 (11741988_at) / RFU 11764193_at / Fold change /veh 11764193_at / RFU TMEM53 (11763286_at) / Fold change /veh TMEM53 (11763286_at) / RFU MAGEB2 (11727129_at) / Fold change /veh MAGEB2 (11727129_at) / RFU TMEM200A (11744735_a_at) / Fold change /veh TMEM200A (11744735_a_at) / RFU CCDC152 (11751479_a_at) / Fold change /veh CCDC152 (11751479_a_at) / RFU FAM211A (11726209_a_at) / Fold change /veh FAM211A (11726209_a_at) / RFU RGS16 (11746705_a_at) / Fold change /veh RGS16 (11746705_a_at) / RFU VCAN (11755009_s_at) / Fold change /veh VCAN (11755009_s_at) / RFU RHOB (11743442_s_at) / Fold change /veh RHOB (11743442_s_at) / RFU RGS16 (11720943_a_at) / Fold change /veh RGS16 (11720943_a_at) / RFU RGS16 (11720944_at) / Fold change /veh RGS16 (11720944_at) / RFU, VPS4B / Fold change vs veh, VPS4B / RFU, CREB1 / Fold change vs veh, CREB1 / RFU, DNAJC13 / Fold change vs veh, DNAJC13 / RFU, GNAQ / Fold change vs veh, GNAQ / RFU, CDK5R1 / Fold change vs veh, CDK5R1 / RFU, ZRANB3 / Fold change vs veh, ZRANB3 / RFU, CUL4A / Fold change vs veh, CUL4A / RFU, CCNY / Fold change vs veh, CCNY / RFU, UFL1 / Fold change vs veh, UFL1 / RFU, COG3 / Fold change vs veh, COG3 / RFU, DIAPH2 / Fold change vs veh, DIAPH2 / RFU, SKA2 / Fold change vs veh, SKA2 / RFU, AFF3 / Fold change vs veh, AFF3 / RFU, LMF1 / Fold change vs veh, LMF1 / RFU, IPO11 / Fold change vs veh, IPO11 / RFU, DFFB / Fold change vs veh, DFFB / RFU, FOXP1 / Fold change vs veh, FOXP1 / RFU, CARD8 / Fold change vs veh, CARD8 / RFU, STRN3 / Fold change vs veh, STRN3 / RFU, ADK / Fold change vs veh, ADK / RFU, RASSF2 / Fold change vs veh, RASSF2 / RFU, WIPF1 / Fold change vs veh, WIPF1 / RFU, LARP1B / Fold change vs veh, LARP1B / RFU, RASA1 / Fold change vs veh, RASA1 / RFU, RB1 / Fold change vs veh, RB1 / RFU, PPFIA1 / Fold change vs veh, PPFIA1 / RFU, MAT2A / Fold change vs veh, MAT2A / RFU, CCT5 / Fold change vs veh, CCT5 / RFU, WDR92 / Fold change vs veh, WDR92 / RFU, CUX1 / Fold change vs veh, CUX1 / RFU, TTC7A / Fold change vs veh, TTC7A / RFU, TMEM135 / Fold change vs veh, TMEM135 / RFU, DEPTOR / Fold change vs veh, DEPTOR / RFU, CPM / Fold change vs veh, CPM / RFU, DNAJB6 / Fold change vs veh, DNAJB6 / RFU, CACNA2D3 / Fold change vs veh, CACNA2D3 / RFU, DTX4 / Fold change vs veh, DTX4 / RFU, TFCP2 / Fold change vs veh, TFCP2 / RFU, GMCL1 /// GMCL1P1 / Fold change vs veh, GMCL1 /// GMCL1P1 / RFU, AEBP2 / Fold change vs veh, AEBP2 / RFU, SNHG1 /// SNORD22 /// SNORD25 /// SNORD26 /// SNORD27 /// SNORD28 /// SNORD29 /// SNORD31 / Fold change vs veh, SNHG1 /// SNORD22 /// SNORD25 /// SNORD26 /// SNORD27 /// SNORD28 /// SNORD29 /// SNORD31 / Fold change (Aza/veh), C12orf56 (ProbeSet 11735607_a_at) / Fold change (ACY-1035/veh), C12orf56 (ProbeSet 11735607_a_at) / Fold change (Aza/veh), FGFR1OP (ProbeSet 11751329_s_at) / Fold change (ACY-1035/veh), FGFR1OP (ProbeSet 11751329_s_at) / Fold change (Aza/veh), VPS36 (ProbeSet 11739960_a_at) / Fold change (ACY-1035/veh), VPS36 (ProbeSet 11739960_a_at) / RFU SYPL1 (11715823_x_at) / Fold change /veh SYPL1 (11715823_x_at) / RFU IGFBP7 (11715501_s_at) / Fold change /veh IGFBP7 (11715501_s_at) / RFU REEP3 (11722064_at) / Fold change /veh REEP3 (11722064_at) / RFU IGLL1 (11728026_x_at) / Fold change /veh IGLL1 (11728026_x_at): dose or concentration left out as unconfirmed
Conditions: ProbeSet 11740528_a_at; LIST D

Nc1ncn([C@@H]2O[C@H](CO)[C@@H](O)[C@H]2O)c(=O)n1 [azacitidine]
RFU, AFF3: 349.86 RFU
